Assay results taken from US9890133B2 (priority 2011, dated 2018).
≈ marks a conversion by molar mass, not a printed value.

Assay: in vitro
Details: human

Row | SMILES | CC50 (Picorana CC50) [µg/mL] | CC50 [µg/mL]
1 | CC(=O)NC12C(=O)c3ccccc3C1(OC(=O)Oc1ccccc1)Oc1cc(C(C)C)ccc12 (centres unmarked) [Example 121, Carbonic acid 9b-acetylamino-7-isopropyl-10-oxo-9b,10-dihydro-5-oxa-indeno[2,1-a]inden-4b-yl ester phenyl ester] | > 50 | –
2 | CC(C)c1ccc2c(c1)OC1(OC(=S)Nc3ccccc3)c3ccccc3C(=O)C21N=[N+]=[N-] (centres unmarked) [Example 122, Phenyl-thiocarbamic acid O-(9b-azido-7-isopropyl-10-oxo-9b,10-dihydro-5-oxa-indeno[2,1-a]inden-4b-yl) ester] | 12 (≈ 26.2 µM) | –
3 | CCC(=O)NC12Oc3cc(C(C)C)ccc3C1(NC(=O)CC)C(=O)c1ccccc12 (centres unmarked) [Example 124] | > 50 | –
4 | CC(C)C(=O)NC12Oc3cc(C(C)C)ccc3C1(NC(=O)C(C)C)C(=O)c1ccccc12 (centres unmarked) [Example 125] | 45.5 (≈ 105 µM) | –
5 | CC(C)c1ccc2c(c1)OC1(O)c3cccnc3C(=O)C21O (centres unmarked) [Example 126, 4b,9b-Dihydroxy-7-isopropyl-4bH-benzofuro[2′,3′:3,4]cyclopenta[1,2-b]pyridin-10(9bH)-one] | 47.1 (≈ 158 µM) | –
6 | CC(=O)OC12Oc3cc(C(C)C)ccc3C1(OC(C)=O)C(O)c1ccccc12 (centres unmarked) [Example 127, 10-Hydroxy-7-isopropyl-9b,10-dihydro-4bH-indeno[1,2-b]benzofurane-4b,9b-diyl diacetate] | 37.6 | –
7 | CO/N=C1/c2ccccc2C2(NOC)Oc3cc(C(C)C)ccc3C12O (centres unmarked) [Example 128, 9b-Hydroxy-7-isopropyl-4b-(methoxyamino)-4bH-indeno[1,2-b]benzofuran-10(9bH)-one O-methyl oxime] | 37.3 (≈ 105 µM) | –
8 | C=C1c2ccccc2C2(OC)Oc3cc(C(C)C)ccc3C12O (centres unmarked) [Example 129, 7-Isopropyl-4b-methoxy-10-methylene-9b,10-dihydro-4bH-indeno[1,2-b]benzofuran-9b-ol] | 6.79 (≈ 22 µM) | –
9 | CO/N=C1/c2ccccc2C2(OC)Oc3cc(C(C)C)ccc3C12O (centres unmarked) [Example 130, 9b-Hydroxy-7-isopropyl-4b-methoxy-4bH-indeno[1,2-b]benzofuran-10(9bH)-one O-methyl oxime] | > 50 | –
10 | CC(C)c1ccc2c(c1)OC1(O)c3cccc(NCc4ccccc4)c3C(=O)C21O (centres unmarked) [Example 132, 1-(Benzylamino)-4b,9b-dihydroxy-7-isopropyl-4bH-indeno[1,2-b]benzofuran-10(9bH)-one] | 0.72 (≈ 1.79 µM) | –
11 | CCNc1cccc2c1C(=O)C1(O)c3ccc(C(C)C)cc3OC21O (centres unmarked) [Example 133, 1-(Ethylamino)-4b,9b-dihydroxy-7-isopropyl-4bH-indeno[1,2-b]benzofuran-10(9bH)-one] | 1.58 (≈ 4.66 µM) | –
12 | CC(C)c1ccc2c(c1)OC1(C)c3ccccc3C(=O)C21O (centres unmarked) [Example 134, 9b-Hydroxy-7-isopropyl-4b-methyl-4bH-indeno[1,2-b]benzofuran-10(9bH)-one] | 6.69 (≈ 22.7 µM) | –
13 | CC(C)c1ccc2c(c1)OC1(O)c3ccccc3C(C)C21O (centres unmarked) [Example 136, 7-Isopropyl-10-methyl-9b,10-dihydro-4bH-indeno[1,2-b]benzofuran-4b,9b-diol] | 7.8 (≈ 26.3 µM) | –
14 | CC(=O)NC12C(=O)c3c(Br)cccc3C1(O)Oc1cc(C(C)C)ccc12 (centres unmarked) [Example 137, N-(1-Bromo-4b-hydroxy-7-isopropyl-10-oxo-9b,10-dihydro-4bH-indeno[1,2-b]benzofuran-9b-yl)acetamide] | 40 (≈ 96 µM) | –
15 | COc1cc2c(cc1OC)C1(O)C(=O)c3ccccc3C1(O)N2C(=O)C(C)C (centres unmarked) [Example 138, 4b,9b-Dihydroxy-5-isobutyryl-7,8-dimethoxy-5,9b-dihydro-4bH-indeno[1,2-b]indol-10-one] | 38.8 (≈ 101 µM) | –
16 | CC(C)c1ccc2c(c1)OC1(O)c3ccc(N4CCCCC4)cc3C(=O)C21O (centres unmarked) [Example 139, 4b,9b-Dihydroxy-7-isopropyl-2-piperidinyl-4bH-benzo[d]indeno[1,2-b]furan-10(9bH)-one] | 0.45 (≈ 1.19 µM) | –
17 | CC(C)c1ccc2c(c1)OC1(O)c3ccc(N4CCOCC4)cc3C(=O)C21O (centres unmarked) [Example 140, 4b,9b-Dihydroxy-7-isopropyl-2-morpholinyl-4bH-benzo[d]indeno[1,2-b]furan-10(9bH)-one] | 2.08 (≈ 5.45 µM) | –
18 | CC(C)c1ccc2c(c1)OC1(O)c3cccc(N4CCCCC4)c3C(=O)C21O (centres unmarked) [Example 141, 4b,9b-Dihydroxy-7-isopropyl-1-piperidinyl-4bH-benzo[d]indeno-[1,2-b]furan-10(9bH)-one] | 3.47 (≈ 9.14 µM) | –
19 | CC(C)c1ccc2c(c1)OC1(O)c3cccc(N4CCOCC4)c3C(=O)C21O (centres unmarked) [Example 142, 4b,9b-Dihydroxy-7-isopropyl-1-morpholinyl-4bH-benzo[d]indeno[1,2-b]furan-10(9bH)-one] | 18.7 (≈ 49 µM) | –
20 | CC(C)C(=O)N1c2cc(C(C)C)ccc2C2(O)C(=O)c3ccccc3C12O (centres unmarked) [Example 145, 4b,9b-Dihydroxy-5-isobutyryl-7-isopropyl-5,9b-dihydro-4bH-indeno[1,2-b]indol-10-one] | 18.3 (≈ 50.2 µM) | –
21 | CC(C)c1ccc2c(c1)OC1(O)c3ccc(N4CCC(O)CC4)cc3C(=O)C21O (centres unmarked) [Example 146, 4b,9b-Dihydroxy-7-isopropyl-2-(hydroxypiperidinyl)-4bH-benzo[d]indeno[1,2-b]furan-10(9bH)-one] | 1.53 (≈ 3.87 µM) | –

Row | SMILES | CC50 (Picorana CC50) [µg/mL] | CC50 [µg/mL]
22 | CC(C)c1ccc2c(c1)OC1(O)c3cccc(N4CCC(O)CC4)c3C(=O)C21O (centres unmarked) [Example 147, 4b,9b-Dihydroxy-1-(4-hydroxypiperidin-1-yl)-7-isopropyl-4bH-benzo[d]indeno[1,2-b]furan-10(9bH)-one] | 32.9 (≈ 83.1 µM) | –
23 | COc1ccc(CN2CCN(c3ccc4c(c3)C(=O)C3(O)c5ccc(C(C)C)cc5OC43O)CC2)cc1 (centres unmarked) [Example 148, 4b,9b-Dihydroxy-7-isopropyl-2-(4-(4-methoxybenzyl)piperazin-1-yl)-4bH-benzo[d]indeno[1,2-b]furan-10(9bH)-one] | 1.72 (≈ 3.44 µM) | –
24 | COc1ccc(CN2CCN(c3cccc4c3C(=O)C3(O)c5ccc(C(C)C)cc5OC43O)CC2)cc1 (centres unmarked) [Example 149, 4b,9b-Dihydroxy-7-isopropyl-1-(4-(4-methoxybenzyl)piperazin-1-yl)-4bH-benzo[d]indeno[1,2-b]furan-10(9bH)-one] | 8.48 (≈ 16.9 µM) | –
25 | CC(C)c1ccc2c(c1)OC1(O)c3ccc(N(C)C)cc3C(=O)C21O (centres unmarked) [Example 150, 2-(Dimethylamino)-4b,9b-dihydroxy-7-isopropyl-4bH-benzo[d]indeno[1,2-b]-furan-10(9bH)-one] | 1.32 (≈ 3.89 µM) | –
26 | CC(C)c1ccc2c(c1)OC1(O)c3cccc(N(C)C)c3C(=O)C21O (centres unmarked) [Example 151, 1-(Dimethylamino)-4b,9b-dihydroxy-7-isopropyl-4bH-benzo[d]indeno[1,2-b]-furan-10(9bH)-one] | 1.52 (≈ 4.48 µM) | –
27 | CC(C)c1ccc2c(c1)OC1(O)c3ccccc3/C(=N\N)C21O (centres unmarked) [Example 152, 10-Hydrazono-7-isopropyl-9b,10-dihydro-4bH-benzo[d]indeno[1,2-b]furan-4b,9b-diol] | 0.9 (≈ 2.9 µM) | 10.5 (≈ 33.9 µM)
28 | CC(C)c1cc(C(C)C)c2c(c1)C1(O)C(=O)c3c(N)cccc3C1(O)O2 (centres unmarked) [Example 157, 1-Amino-4b,9b-dihydroxy-6,8-diisopropyl-4bH-benzo[d]indeno[1,2-b]furan-10(9bH)-one] | > 100 | 28.5 (≈ 80.6 µM)
29 | COc1ccc(NC(=O)NC23C(=O)c4c(N)cccc4C2(O)Oc2cc(C(C)C)ccc23)cc1 (centres unmarked) [Example 162] | – | > 10
30 | CCCCNC(=O)NC12C(=O)c3c(N)cccc3C1(O)Oc1cc(C(C)C)ccc12 (centres unmarked) [Example 163, 1-(1-Amino-4b-hydroxy-7-isopropyl-10-oxo-9b,10-dihydro-4bH-indeno[1,2-b]benzofuran-9b-yl)-3-butylurea] | – | > 10
31 | CC(C)c1ccc2c(c1)OC1(O)c3cccc(N)c3C(=O)C21NC(=O)Nc1ccc(F)cc1 (centres unmarked) [Example 164, 1-(1-Amino-4b-hydroxy-7-isopropyl-10-oxo-9b,10-dihydro-4bH-indeno[1,2-b]benzofuran-9b-yl)-3-(4-fluorophenyl)urea] | – | > 10
32 | CC(C)c1ccc2c(c1)OC1(O)c3cccc(N)c3C(=O)C21NC(=O)NC(C)(C)C (centres unmarked) [Example 165] | – | > 10
33 | CC(=O)NC12C(=O)c3c(NC=O)cccc3C1(O)Oc1cc(C(C)C)ccc12 (centres unmarked) [Example 167, N-(1-Formamido-4b-hydroxy-7-isopropyl-10-oxo-9b,10-dihydro-4bH-benzo[d]-indeno[1,2-b]furan-9b-yl)acetamide] | – | > 10
34 | CC(C)c1ccc2c(c1)OC1(O)c3cccc(N)c3C(=O)C21NS(C)(=O)=O (centres unmarked) [Example 168, N-(1-Amino-4b-hydroxy-7-isopropyl-10-oxo-9b,10-dihydro-4bH-benzo[d]indeno[1,2-b]furan-9b-yl)methanesulfonamide] | – | > 10
35 | CCOP(=O)(NC12C(=O)c3c(N)cccc3C1(O)Oc1cc(C(C)C)ccc12)OCC (centres unmarked) [Example 169, Diethyl (1-amino-4b-hydroxy-7-isopropyl-10-oxo-9b,10-dihydro-4bH-indeno[1,2-b]benzofuran-9b-yl)phosphoamidate] | – | > 10
36 | CC(C)c1ccc2c(c1)OC1(O)c3cccc(N)c3C(=O)C21NC(=O)c1ccc(-c2ccccc2)cc1 (centres unmarked) [Example 172] | – | > 10
37 | CCNC(=O)NC12C(=O)c3c(N)cccc3C1(O)Oc1cc(C(C)C)ccc12 (centres unmarked) [Example 173] | – | > 10
38 | CC(C)c1ccc2c(c1)OC1(O)c3cccc(N)c3C(=O)C21NS(=O)(=O)C(F)(F)F (centres unmarked) [Example 176, N-(1-Amino-4b-hydroxy-7-isopropyl-10-oxo-9b,10-dihydro-4bH-benzo[d]indeno[1,2-b]furan-9b-yl)-1,1,1-trifluoromethanesulfonamide] | – | > 10
39 | CC(C)c1ccc2c(c1)OC1(O)c3ccccc3C(=O)C21NC=O (centres unmarked) [Example 177, N-(4b-hydroxy-7-isopropyl-10-oxo-9b,10-dihydro-4bH-indeno[1,2-b]benzofuran-9b-yl)formamide] | – | > 10
40 | O=C1c2ccccc2C2(O)Oc3ccccc3C12NS(=O)(=O)C(F)(F)F (centres unmarked) [Example 178, 1,1,1-Trifluoro-N-(4b-hydroxy-10-oxo-9b,10-dihydro-4bH-benzo[d]indeno[1,2-b]furan-9b-yl)methanesulfonamide] | – | > 10
41 | CC(C)c1ccc2c(c1)OC1(O)c3cccc(N)c3C(=O)C21NC(=O)Cc1ccc(-c2ccccc2)cc1 (centres unmarked) [Example 182, 2-([1,1′-Biphenyl]-4-yl)-N-(1-amino-4b-hydroxy-7-isopropyl-10-oxo-9b,10-dihydro-4bH-indeno[1,2-b]benzofuran-9b-yl)acetamide] | 6.42 (≈ 12.7 µM) | 5.85 (≈ 11.6 µM)
